No end group written: not given here.
Assays:
[1] = tested on: rat primary dopaminergic neurons; assay: Cellular model of Parkinson's disease, survival of rat primary dopaminergic neurons after 6-hydroxydopamine injury; assay type: cell-based
Description: 6-hydroxydopamine (6-OHDA) is a selective catecholaminergic neurotoxin that is not only used as a pharmacological agent able to trigger PD-like stigmata (Sauer H. and Oertel W H Neuroscience 1994; 59: 401 and Cass W A et al. Brain Res. 2002; 938: 29) but also likely corresponds to a natural dopaminergic catabolite that accumulates in PD-affected brains and that appears to strongly contribute to this pathology (Jellinger K. et al. J. Neural. Transm. 1995; 46: 297). For this reason, 6-OHDA-induced dopaminergic neurotoxicity in mice is widely used as a model for PD research. Because 6-OHDA also induces neurodegeneration of dopaminergic neurons in vitro, it provides a useful model of PD. In this in vitro test mesencephalic dopaminergic neurons are exposed to 6-OHDA injury. […] After 24 h of intoxication, viable dopaminergic neurons are visualized and quantified by staining with a monoclonal Anti-Tyrosine Hydroxylase (TH) antibody. Tyrosine Hydroxylase is the first and rate-limiting enzyme involved in the biosynthesis of catecholamines like dopamine and norepinephrin from Tyrosine and has a key role in the physiology of adrenergic neurons. Tyrosine hydroxylase is commonly used as a marker for dopaminergic neurons, which is particularly relevant for research in Parkinson's disease.
Rat dopaminergic neurons were cultured as described by Schinelli et al. J. Neurochem. 1988; 50: 1900 and Visanji N P et al. FASEB J. 2008; 22: 2488. Briefly, the midbrains obtained from 15-day old rat embryos (Janvier, France) were dissected under a microscope. The embryonic midbrains were removed and placed in ice-cold medium of Leibovitz (L15) containing 2% of Penicillin-Streptomycin (PS) and 1% of bovine serum albumin (BSA). The ventral portion of the mesencephalic flexure, a region of the developing brain rich in dopaminergic neurons, was used for the cell preparations.
The midbrains were dissociated by trypsinisation for 20 min at 37° C. (Trypsin EDTA 1X). […] Viable cells were counted in a Neubauer cytometer using the trypan blue exclusion test. […]

[2] = tested on: rat primary GABAergic medium spiny neurons; assay: Cellular model of Huntington's disease, survival of rat primary GABAergic medium spiny neurons after glutamate injury; assay type: cell-based
Description: GABAergic medium spiny neurons (MSNs) in the striatum represent the mostly affected cell population in HD brain. Being the main neuronal cell type of the striatum (85% in humans), GABAergic MSNs play a central role in the clinical manifestation of HD. GABA is viewed as the neurotransmitter that inhibits spontaneous involuntary movements, therefore loss of GABAergic MSNs is responsible for chorea development and other involuntary movements. The exquisite vulnerability of MSNs of striatum to degeneration in HD is caused by glutamate excitotoxicity that leads to neuronal dysfunction and death. Excessive activation of NMDA glutamate receptors is observed in post-mortem HD brain tissue (Kumar P. et al. Pharmacol. Rep. 2010; 62: 1). […] After 24 h of intoxication, viable GABAergic neurons are visualized and quantified by staining with a monoclonal anti-Glutamic Acid Decarboxylase antibody (specific for isoform GAD67). […]
For each condition, 30 pictures per well were acquired (representing 80% of the total surface of the well) using ImageXpress (Molecular device) equipped with a LED at 20× magnification. […] The number of GAD67-positive neurons was automatically analyzed using MetaXpress software (Molecular device). […] All values were expressed as mean+/−SEM (s.e. mean) (n=6 wells per condition per culture).

[3] = Crossing of the blood-brain barrier, inferred from activity by intra-peritoneal route; assay type: in vivo; settings: concluded from biological activity after intra-peritoneal administration
Description: To cross the BBB, persons skilled in the art know that the molecular and physicochemical properties of the molecule must fulfill the 5 criteria described by Lipinski et al. (1997). Adv Drug Del Rev 23: 3-25 (amongst them a low molecular weight, its hydrophobicity, its charge etc. . . . ).

For `NCCc1cc(O)c(O)cc1O` [6-OHDA, 6-hydroxydopamine, reference compound], the “reduction of survival of TH-positive dopaminergic neurons compared to control culture conditions” value ([1]; 6-OHDA 20 μM, 24 h, no protective pre-treatment) was 31%.

For `N[C@@H](CCC(=O)O)C(=O)O` [glutamate, reference compound], the “reduction of survival of GAD67-positive MSN compared to control culture conditions” value ([2]; glutamate 10 μM, 20 min, read after 24 h, no protective pre-treatment) was 38%.

In the case of “EAKSQGGSD [PAT peptide, Glu-Ala-Lys-Ser-Gln-Gly-Gly-Ser-Asp (EAKSQGGSD)]”, the “survival of TH-positive dopaminergic neurons (% of control condition)” value ([1]; PAT 10 nM, 1 h pre-incubation, then 6-OHDA 20 μM for 24 h) is reported as 100% and the “passage across the blood-brain barrier” value [3] is reported as “crosses the BBB”.

B1: BNDF: survival promoting brain derived neurotrophic factor used as a positive control (protein, UniProt P23560 19-247, looked up)
Neurotrophic factor BDNF …: APMKEANIRGQGGLAYPGVRTHGTLESVNGPKAGSRGLTSLADTFEHVIEELLDEDQKVRPNEENNKDADLYTSRVMLSSQVPLEPPLLFLLEEYKNYLDAANMSMRVRRHSDPARRGELSVCDSISEWVTAADKKTAVDMSGGTVTVLEKVPVSKGQLKQYFYETKCNPMGYTKEGCRGIDKRHWNSQCRTTQSYVRALTMDSKKRIGWRFIRIDTSCVCTLTIKRGR
For B1, the “protection of TH-positive neurons from 6-OHDA-induced cell death” value ([1]; BDNF 50 ng/mL (2 nM), 1 h pre-incubation, 6-OHDA 20 μM 24 h) was “fully protected” and the “survival of GAD67-positive neurons (cell survival, % of control)” value ([2]; BDNF 50 ng/mL (2 nM), 1 h pre-incubation, glutamate 10 μM 20 min, then 24 h) was 81%.

— patent US9468662B2, “Use of the PAT nonapeptide in the treatment and prevention of neurodegenerative diseases” (ORPHIT, priority 2010, dated 2016)
